# Source: patent US20190119213A1, “OXO-PYRIDINE-DERIVATIVES AS FACTOR XIA INHIBITORS FOR THE TREATMENT OF THROMBOSIS” (BAYER PHARMA AKTIENGESELLSCHAFT, priority 2015, published 2019)
# What was measured:
# [1] = target: T1, human factor XIa (Homo sapiens, UniProt P03951); assay: Measurement of FXIa inhibition (fluorogenic peptide substrate); assay type: biochemical; conditions: factor XIa from Kordia 0.45 nM; substrate Boc-Glu(OBzl)-Ala-Arg-AMC; 30 min at 22° C.
# T1 construct: purchased Kordia
# Description: (§1) The factor XIa inhibition of the inventive substances is determined using a biochemical test system which utilizes the reaction of a peptidic factor XIa substrate to determine the enzymatic activity of human factor XIa. Here, factor XIa cleaves from the peptic factor XIa substrate the C-terminal aminomethylcoumarin (AMC), the fluorescence of which is measured. The determinations are carried out in microtitre plates.
# Test substances are dissolved in dimethyl sulphoxide and serially diluted in dimethyl sulphoxide (3000 μM to 0.0078 μM; resulting final concentrations in the test: 50 μM to 0.00013 μM). In each case 1 μl of the diluted substance solutions is placed into the wells of white microtitre plates from Greiner (384 wells). 20 μl of assay buffer (50 mM of Tris/HCl pH 7.4; 100 mM of sodium chloride; 5 mM of calcium chloride; 0.1% of bovine serum albumin) and 20 μl of factor XIa from Kordia (0.45 nM in assay buffer) are then added successively. After 15 min of incubation, the enzyme reaction is started by addition of 20 μl of the factor XIa substrate Boc-Glu(OBzl)-Ala-Arg-AMC dissolved in assay buffer (10 μM in assay buffer) from Bachem, the mixture is incubated at room temperature (22° C.) for 30 min and fluorescence is then measured (excitation: 360 nm, emission: 460 nm). The measured emissions of the test batches with test substance are compared to those of control batches without test substance (only dimethyl sulphoxide instead of test substance in dimethyl sulphoxide), and IC50 values are calculated from the concentration/activity relationships.
# [2] = target: T2, human plasma kallikrein (Homo sapiens, UniProt P03952); assay: Determination of the plasma kallikrein activity (fluorogenic peptide substrate); assay type: biochemical; conditions: plasma kallikrein from Kordia 0.6 nM; substrate H-Pro-Phe-Arg-AMC; 30 min at 22° C.
# T2 construct: purchased Kordia
# Description: as §1, with “To determine the plasma kallikrein” for “The factor XIa”, “the” for “the inventive”, “according to the invention,” for “is determined using”, “system is used” for “system”, “plasma kallikrein” for “factor XIa”, “plasma kallikrein.” for “factor XIa.”
# Test substances are dissolved in dimethyl sulphoxide and serially diluted in dimethyl sulphoxide (3000 μM to 0.0078 μM; resulting final concentrations in the test: 50 μM to […] each case 1 μl of the diluted substance solutions is placed into the wells of white microtitre plates from Greiner (384 wells). 20 μl of assay buffer (50 mM Tris/HCl pH 7.4; 100 mM sodium chloride solution; 5 mM of calcium chloride solution; 0.1% of bovine serum albumin) and 20 μl of plasma kallikrein from Kordia (0.6 nM in assay buffer) are then added successively. After 15 min of incubation, the enzyme reaction is started by addition of 20 μl of the substrate H-Pro-Phe-Arg-AMC dissolved in assay buffer (10 μM in assay buffer) from Bachem, the mixture is incubated at room temperature (22° C.) for 30 min and fluorescence is then measured (excitation: 360 nm, emission: 460 nm). The measured emissions of the test batches with test substance are compared to those of control batches without test substance (only dimethyl sulphoxide instead of test substance in dimethyl sulphoxide), and IC50 values are calculated from the concentration/activity relationships.
# T1 sequence (P03951 388-625 limits assumed): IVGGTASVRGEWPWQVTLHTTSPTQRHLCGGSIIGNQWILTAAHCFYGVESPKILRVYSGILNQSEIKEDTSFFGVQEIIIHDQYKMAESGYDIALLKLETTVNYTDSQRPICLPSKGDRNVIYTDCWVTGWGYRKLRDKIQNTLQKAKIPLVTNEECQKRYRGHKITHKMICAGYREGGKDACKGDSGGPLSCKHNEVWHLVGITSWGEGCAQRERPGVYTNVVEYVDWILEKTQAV
# T1 sequence (P03951 19-387 partner limits assumed): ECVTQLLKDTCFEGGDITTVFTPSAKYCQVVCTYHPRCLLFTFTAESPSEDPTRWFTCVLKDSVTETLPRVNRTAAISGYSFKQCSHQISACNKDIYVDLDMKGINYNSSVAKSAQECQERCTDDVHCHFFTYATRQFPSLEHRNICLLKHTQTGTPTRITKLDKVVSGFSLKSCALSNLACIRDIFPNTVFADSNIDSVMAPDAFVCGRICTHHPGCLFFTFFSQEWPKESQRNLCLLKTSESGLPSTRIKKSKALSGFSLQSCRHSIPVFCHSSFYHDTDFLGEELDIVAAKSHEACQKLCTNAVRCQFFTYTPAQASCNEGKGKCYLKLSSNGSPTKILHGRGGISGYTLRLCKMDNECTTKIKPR
# T2 sequence (P03952 391-638 limits assumed): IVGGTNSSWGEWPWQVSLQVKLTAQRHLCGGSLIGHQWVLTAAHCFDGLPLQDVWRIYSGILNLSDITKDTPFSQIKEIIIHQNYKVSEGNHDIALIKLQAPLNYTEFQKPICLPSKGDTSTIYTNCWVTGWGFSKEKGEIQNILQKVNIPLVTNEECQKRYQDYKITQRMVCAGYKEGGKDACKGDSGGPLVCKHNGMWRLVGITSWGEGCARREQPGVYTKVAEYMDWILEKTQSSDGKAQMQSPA
# T2 sequence (P03952 20-390 partner limits assumed): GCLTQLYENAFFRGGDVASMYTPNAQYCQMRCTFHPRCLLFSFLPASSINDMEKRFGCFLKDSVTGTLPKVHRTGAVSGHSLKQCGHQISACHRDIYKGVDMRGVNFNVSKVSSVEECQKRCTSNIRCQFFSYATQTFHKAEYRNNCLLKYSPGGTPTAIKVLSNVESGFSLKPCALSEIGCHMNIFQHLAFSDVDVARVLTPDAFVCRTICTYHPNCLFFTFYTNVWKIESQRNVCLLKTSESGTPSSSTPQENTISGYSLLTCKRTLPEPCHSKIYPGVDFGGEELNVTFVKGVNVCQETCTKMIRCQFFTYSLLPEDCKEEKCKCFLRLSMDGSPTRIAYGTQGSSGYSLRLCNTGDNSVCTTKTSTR
IC50 [1],IC50 [2],SMILES
0.9 nM,4.8 nM,"COc1cn([C@@H](CCOC(C)C)C(=O)Nc2ccc(C(=O)O)cc2)c(=O)cc1-c1cc(Cl)ccc1C#N (single isomer, unassigned; enantiomer 2) [Example 2]"
0.4 nM,2.4 nM,"COc1cn([C@@H](CCOC2(C)CCC2)C(=O)Nc2ccc(C(=O)O)cc2)c(=O)cc1-c1cc(Cl)ccc1C#N (single isomer, unassigned; enantiomer 2) [Example 10]"
1.5 nM,27 nM,"COc1cn([C@@H](CCOC2(C)CCC2)C(=O)Nc2ccc(C(=O)O)cc2)c(=O)cc1-c1cc(Cl)ccc1OC(F)F (single isomer, unassigned; enantiomer 2) [Example 12]"
1.2 nM,5.6 nM,"COc1cn(C(CCOC(C)C)C(=O)Nc2ccc(C(=O)O)cc2)c(=O)cc1-c1cc(Cl)ccc1C#N (racemic) [Example 1, 4-({2-[4-(5-Chloro-2-cyanophenyl)-5-methoxy-2-oxopyridin-1(2H)-yl]-4-isopropoxybutanoyl}-amino)benzoic acid (racemate)]"
0.4 nM,1.4 nM,"COc1cn([C@@H](CCOC2CCC2)C(=O)Nc2ccc(C(=O)O)cc2)c(=O)cc1-c1cc(Cl)ccc1C#N (single isomer, unassigned; enantiomer 2) [Example 4]"
0.6 nM,2.6 nM,"COc1cn(C(CCOC2CCC2)C(=O)Nc2ccc(C(=O)O)cc2)c(=O)cc1-c1cc(Cl)ccc1C#N (racemic) [Example 3, 4-({2-[4-(5-Chloro-2-cyanophenyl)-5-methoxy-2-oxopyridin-1(2H)-yl]-4-(cyclobutyloxy)butanoyl}amino)benzoic acid (racemate)]"
0.3 nM,2.2 nM,"COc1cn([C@@H](CCOC(C)(C)C)C(=O)Nc2ccc(C(=O)O)cc2)c(=O)cc1-c1cc(Cl)ccc1C#N (single isomer, unassigned; enantiomer 2) [Example 6]"
1 nM,6.5 nM,"COc1cn(C(CCOC2(C)CCC2)C(=O)Nc2ccc(C(=O)O)cc2)c(=O)cc1-c1cc(Cl)ccc1C#N (racemic) [Example 9, 4-({2-[4-(5-Chloro-2-cyanophenyl)-5-methoxy-2-oxopyridin-1(2H)-yl]-4-[(1-methylcyclobutyl)oxy]butanoyl}amino)benzoic acid (racemate)]"
1.5 nM,29 nM,"COc1cn([C@@H](CCOC(C)(C)C)C(=O)Nc2ccc(C(=O)O)cc2)c(=O)cc1-c1cc(Cl)ccc1OC(F)F (single isomer, unassigned; enantiomer 2) [Example 8]"
2.2 nM,45 nM,"COc1cn(C(CCOC2(C)CCC2)C(=O)Nc2ccc(C(=O)O)cc2)c(=O)cc1-c1cc(Cl)ccc1OC(F)F (racemic) [Example 11, 4-[(2-{4-[5-Chloro-2-(difluoromethoxy)phenyl]-5-methoxy-2-oxopyridin-1(2H)-yl}-4-[(1-methylcyclobutyl)oxy]butanoyl)amino]benzoic acid (racemate)]"

SMILES,IC50 [1],IC50 [2]
"COc1cn(C(CCOC(C)(C)C)C(=O)Nc2ccc(C(=O)O)cc2)c(=O)cc1-c1cc(Cl)ccc1OC(F)F (racemic) [Example 7, 4-[(4-tert-Butoxy-2-{4-[5-chloro-2-(difluoromethoxy)phenyl]-5-methoxy-2-oxopyridin-1(2H)-yl}butanoyl)amino]benzoic acid (racemate)]",2.9 nM,38 nM
"COc1cn(C(CCOC(C)(C)C)C(=O)Nc2ccc(C(=O)O)cc2)c(=O)cc1-c1cc(Cl)ccc1C#N (racemic) [Example 5, 4-({4-tert-Butoxy-2-[4-(5-chloro-2-cyanophenyl)-5-methoxy-2-oxopyridin-1(2H)-yl]butanoyl}amino)benzoic acid (racemate)]",0.7 nM,3.9 nM
